The subject of one data set is mice. To be noted: cited from earlier work.
A further data set has as its target T1, cytochrome P450 2C9 (Homo sapiens, UniProt P11712).
T1 construct: human liver microsomes (HLM; 0.1 mg/mL); from tissue; host or cells: human liver microsomes
Briefly: Cytochrome P450 cocktail inhibition assay, 2C9 (diclofenac). Format: in vitro ADME. Conditions: human liver microsomes 0.1 mg/mL; read-out: CYP Inhibition (2C9). How it is done:
(§1) Solutions of substrates for cytochrome P450 enzymes (1A2: Phenacetin, 10 μM; 2C9: Diclofenac, 5 μM; 2D6: Dextromethorphan, 5 μM; 3A4: Midazolam, 2 μM; as a mixture), test compound (VU6028418; multiple concentrations), and the positive control for pan-P450 inhibition (miconazole; multiple concentrations) were prepared. A reaction mixture of assay buffer (100 mM Kpi at pH 7.4), human liver microsomes (HLM; 0.1 mg/mL), and the substrate mixture were aliquoted into a 96-deepwell plate. The test compound and control were then added to the plate such that the final concentration of test compound ranged from 0.1-30 μM (two replicates per concentration). The assay plate was vortexed (briefly) and pre-incubated at 37° C. in an orbital shaker for 15 minutes. The reaction was initiated by addition of NADPH (1 mM, final concentration) and continued for 8 min before it was quenched by acetonitrile (2× volume) containing an LCMS internal standard (carbamazepine, 50 nM). The plate was then centrifuged (4000 rcf, 4° C., 10 min), and the resulting supernatant was diluted with water (1× volume) for LC-MS/MS. Assay samples were analyzed via electrospray ionization on an AB Sciex API-4000 (Foster City, Calif.) triple-quadrupole mass spectrometer coupled to Agilent Technologies 1290 Infinity series pumps (Santa Clara, Calif.), and a Leap Technologies CTC PAL auto -sampler (Carrboro, NC). Analytes were separated by gradient elution on a Phenomenex Kinetex (C18 2.1×50 mm 5 μm) column (Torrance, Calif.) thermostated at 40° C. The HPLC mobile phase A was 0.1% formic acid in water (pH unadjusted), and the mobile phase B was 0.1% formic acid in acetonitrile (pH unadjusted). […] The total run time was 2.5 min and the HPLC flow rate was 0.5 mL/min. The source temperature was set at 500° C. and mass spectral analyses were performed using multiple reaction monitoring (MRM) with mass transitions specific to each substrate's metabolite utilizing a Turbo-Ionspray® source in positive ionization mode (5.0 kV spray voltage). The test compound and control IC50 values for each enzyme were obtained by quantitating the inhibition of metabolite formation for each substrate. A 0 μM test compound (or control) conditions represented 100% enzymatic activity, and the effect of increasing test compound concentrations on enzymatic activity was then calculated from the % of control activity. Inhibition curves were fitted using XLfit 5.2.2 (four-parameter logistic model, equation 201) in order to calculate the concentration that produced half-maximal inhibition (IC50) of each enzyme.

In a further data set the target is T2, cytochrome P450 3A4 (Homo sapiens, UniProt P08684).
T2 construct: human liver microsomes (HLM; 0.1 mg/mL); from tissue; host or cells: human liver microsomes
T2 sequence (P08684 whole entry): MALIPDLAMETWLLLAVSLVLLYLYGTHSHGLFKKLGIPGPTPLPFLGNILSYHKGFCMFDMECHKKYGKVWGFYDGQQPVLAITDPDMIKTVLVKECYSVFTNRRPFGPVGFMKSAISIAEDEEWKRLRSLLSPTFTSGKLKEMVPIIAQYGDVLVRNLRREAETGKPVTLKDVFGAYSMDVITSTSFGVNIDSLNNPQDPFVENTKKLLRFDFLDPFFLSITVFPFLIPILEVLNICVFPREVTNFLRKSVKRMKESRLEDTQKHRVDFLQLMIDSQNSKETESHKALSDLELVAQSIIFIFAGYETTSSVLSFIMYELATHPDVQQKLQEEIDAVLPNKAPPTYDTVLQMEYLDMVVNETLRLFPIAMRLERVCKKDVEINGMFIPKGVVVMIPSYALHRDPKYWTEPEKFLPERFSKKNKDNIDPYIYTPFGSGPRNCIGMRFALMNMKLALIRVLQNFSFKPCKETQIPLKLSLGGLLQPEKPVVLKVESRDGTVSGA
Kind of data set: Cytochrome P450 cocktail inhibition assay, 3A4 (midazolam). Format: in vitro ADME. To be noted: human liver microsomes 0.1 mg/mL; read-out: CYP Inhibition (3A4). How it is done:
as §1

The next data set deals with T3, cytochrome P450 1A2 (Homo sapiens, UniProt P05177).
T3 construct: human liver microsomes (HLM; 0.1 mg/mL); from tissue; host or cells: human liver microsomes
T3 sequence (P05177 1-516): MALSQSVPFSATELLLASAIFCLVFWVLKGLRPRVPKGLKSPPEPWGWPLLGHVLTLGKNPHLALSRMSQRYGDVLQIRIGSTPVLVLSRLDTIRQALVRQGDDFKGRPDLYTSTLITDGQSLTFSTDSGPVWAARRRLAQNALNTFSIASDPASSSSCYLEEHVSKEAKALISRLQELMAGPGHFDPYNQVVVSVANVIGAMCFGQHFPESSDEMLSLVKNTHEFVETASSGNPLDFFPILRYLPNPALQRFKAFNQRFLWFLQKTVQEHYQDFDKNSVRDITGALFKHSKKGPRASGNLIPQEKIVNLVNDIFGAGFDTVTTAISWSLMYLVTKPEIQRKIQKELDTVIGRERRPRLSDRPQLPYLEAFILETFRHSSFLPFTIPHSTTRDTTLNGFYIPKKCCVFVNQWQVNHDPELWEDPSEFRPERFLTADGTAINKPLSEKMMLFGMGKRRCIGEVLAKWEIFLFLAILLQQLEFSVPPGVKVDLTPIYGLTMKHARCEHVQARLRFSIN
Briefly: Cytochrome P450 cocktail inhibition assay, 1A2 (phenacetin). The class given is in vitro ADME. To be noted: human liver microsomes 0.1 mg/mL; read-out: CYP Inhibition (1A2). As for the experimental part:
as §1

The target in another data set is T4, P-gp (Homo sapiens, UniProt P08183).
T4 construct: expressed in transfected cells; host or cells: MDR1-MDCK
T4 sequence (P08183 whole entry): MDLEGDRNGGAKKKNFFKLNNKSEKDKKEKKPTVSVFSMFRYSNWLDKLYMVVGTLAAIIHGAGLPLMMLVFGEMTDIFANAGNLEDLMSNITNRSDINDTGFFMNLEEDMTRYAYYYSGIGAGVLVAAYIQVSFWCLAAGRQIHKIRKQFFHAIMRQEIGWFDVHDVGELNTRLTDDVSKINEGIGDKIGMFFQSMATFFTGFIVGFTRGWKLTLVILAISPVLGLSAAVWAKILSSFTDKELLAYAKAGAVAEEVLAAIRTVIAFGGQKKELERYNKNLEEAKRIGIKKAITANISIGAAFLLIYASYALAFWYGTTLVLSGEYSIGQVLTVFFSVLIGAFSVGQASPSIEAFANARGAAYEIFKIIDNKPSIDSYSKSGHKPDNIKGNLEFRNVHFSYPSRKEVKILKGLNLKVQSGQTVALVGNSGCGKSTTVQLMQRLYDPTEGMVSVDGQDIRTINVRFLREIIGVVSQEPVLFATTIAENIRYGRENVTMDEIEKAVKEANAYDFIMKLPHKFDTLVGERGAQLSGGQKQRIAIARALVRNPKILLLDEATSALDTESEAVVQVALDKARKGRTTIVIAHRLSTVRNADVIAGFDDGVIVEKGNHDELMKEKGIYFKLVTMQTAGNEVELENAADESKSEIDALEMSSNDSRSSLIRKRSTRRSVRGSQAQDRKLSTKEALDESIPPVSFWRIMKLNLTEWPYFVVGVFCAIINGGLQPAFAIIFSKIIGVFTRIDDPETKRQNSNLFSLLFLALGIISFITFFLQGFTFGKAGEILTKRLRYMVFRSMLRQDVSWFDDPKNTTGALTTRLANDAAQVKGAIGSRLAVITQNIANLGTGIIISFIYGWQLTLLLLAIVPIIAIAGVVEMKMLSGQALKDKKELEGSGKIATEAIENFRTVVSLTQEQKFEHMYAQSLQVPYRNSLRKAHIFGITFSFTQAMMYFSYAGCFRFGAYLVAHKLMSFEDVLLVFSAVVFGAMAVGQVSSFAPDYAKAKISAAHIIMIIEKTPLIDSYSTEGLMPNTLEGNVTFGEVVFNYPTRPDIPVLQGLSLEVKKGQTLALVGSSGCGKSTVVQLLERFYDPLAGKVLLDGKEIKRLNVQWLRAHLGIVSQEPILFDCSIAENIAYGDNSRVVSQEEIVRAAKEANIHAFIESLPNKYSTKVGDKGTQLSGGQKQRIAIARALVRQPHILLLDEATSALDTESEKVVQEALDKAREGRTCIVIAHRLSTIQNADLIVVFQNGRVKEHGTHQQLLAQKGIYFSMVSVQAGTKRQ
Briefly: P-gp efflux in MDR1-MDCK cell monolayers. The class given is in vitro ADME. To be noted: dog, pH 7.4, MDCK-MDR1, 5 μM. How it is done:
MDR1-MDCK cell monolayers were grown to confluence on collagen-coated, microporous membranes in 12-well assay plates. The permeability assay buffer was Hanks' balanced salt solution containing 10 mM HEPES and 15 mM glucose at a pH of 7.4. The buffer in the receiver chamber also contained 1% bovine serum albumin. The dosing solution concentration was 5 μM of test article in the assay buffer. Cell monolayers were dosed on the apical side (A- to -B) or basolateral side (B- to -A) and incubated at 37° C. with 5% CO2 in a humidified incubator. Samples were taken from the donor and receiver chambers at 120 minutes Each determination was performed in duplicate. The flux of lucifer yellow was also measured post-experimentally for each monolayer to ensure no damage was inflicted to the cell monolayers during the flux period. All samples were assayed by LC-MS/MS using electrospray ionization.

The target in another data set is T5, cytochrome P450 2D6 (Homo sapiens, UniProt P10635).
T5 construct: human liver microsomes (HLM; 0.1 mg/mL); from tissue; host or cells: human liver microsomes
T5 sequence (P10635 whole entry): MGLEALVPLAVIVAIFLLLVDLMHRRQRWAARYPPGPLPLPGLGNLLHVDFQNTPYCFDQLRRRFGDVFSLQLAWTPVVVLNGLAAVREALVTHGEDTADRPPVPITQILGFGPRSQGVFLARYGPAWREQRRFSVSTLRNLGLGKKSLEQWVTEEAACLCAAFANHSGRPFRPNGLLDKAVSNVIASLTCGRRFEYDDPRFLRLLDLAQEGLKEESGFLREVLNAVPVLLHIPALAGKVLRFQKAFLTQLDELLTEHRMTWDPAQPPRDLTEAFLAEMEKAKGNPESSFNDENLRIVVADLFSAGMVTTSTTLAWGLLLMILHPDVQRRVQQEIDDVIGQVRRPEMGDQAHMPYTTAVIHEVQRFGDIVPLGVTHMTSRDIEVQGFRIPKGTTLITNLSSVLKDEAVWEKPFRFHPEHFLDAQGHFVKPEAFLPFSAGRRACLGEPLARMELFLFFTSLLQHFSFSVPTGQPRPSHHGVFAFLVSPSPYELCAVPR
Briefly: Cytochrome P450 cocktail inhibition assay, 2D6 (dextromethorphan). Format: in vitro ADME. To be noted: human liver microsomes 0.1 mg/mL; read-out: CYP Inhibition (2D6). How it is done:
as §1

Where two headings read alike, the source gives them in different places. Where only a bound is given, the exact number is not on record here.

T1 sequence (P11712 whole entry): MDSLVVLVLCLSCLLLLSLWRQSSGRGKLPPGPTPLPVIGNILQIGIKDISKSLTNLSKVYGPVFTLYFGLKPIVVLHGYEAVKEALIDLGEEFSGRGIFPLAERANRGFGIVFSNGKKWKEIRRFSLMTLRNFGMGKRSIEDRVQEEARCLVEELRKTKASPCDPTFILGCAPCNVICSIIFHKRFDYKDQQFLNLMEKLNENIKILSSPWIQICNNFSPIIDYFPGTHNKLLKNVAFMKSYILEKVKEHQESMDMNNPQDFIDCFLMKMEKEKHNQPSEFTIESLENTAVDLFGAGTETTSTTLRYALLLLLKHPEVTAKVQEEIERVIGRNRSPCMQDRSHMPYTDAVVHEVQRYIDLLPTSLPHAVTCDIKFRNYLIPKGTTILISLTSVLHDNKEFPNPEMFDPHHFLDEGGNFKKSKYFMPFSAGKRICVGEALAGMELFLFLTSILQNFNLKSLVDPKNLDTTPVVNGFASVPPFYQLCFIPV

As for `CN1[C@@H]2C[C@@H](OC(=O)[C@H](CO)c3ccccc3)C[C@H]1[C@@H]1O[C@@H]12` [scopolamine], the entries for the “effect on catalepsy induced by haloperidol” value in the data set on mice (M4 KO mice) and with mice (WT mice) were “ineffective” and “completely reversed”, respectively.

Consider `Fc1ccc(Cl)c(-c2ccc(N[C@H]3C[C@@H]4CN(CC5CCOCC5)C[C@@H]4C3)nn2)c1` [reference compound], for which the IC50 at cytochrome P450 2C9 turned out to be 0.15 µM; at cytochrome P450 3A4, 0.97 µM; at cytochrome P450 1A2, 1.1 µM; at cytochrome P450 2D6 it was 5.3 µM. For the same compound, the efflux ratio at 120 min, 5 μM at P-gp stood at 14.

Turning to `Fc1ccc(Cl)c(-c2ccc(N[C@H]3C[C@@H]4CN(Cc5ccccn5)C[C@@H]4C3)nn2)c1` [reference compound], the IC50 at cytochrome P450 2C9 was 10.3 µM; at cytochrome P450 3A4, 21.7 µM; on cytochrome P450 1A2 it was more than 30 µM; on cytochrome P450 2D6 it was more than 30 µM. In addition, the efflux ratio at 120 min, 5 μM on P-gp amounted to 12.3.
